The values that follow come from US6824998B2, “Compounds and methods for detecting tripeptidyl protease I” (University of Iowa Research Foundation, priority 2003, dated 2004).

The target of this experiment is T1, TPP-1 (Mus musculus, UniProt O89023).
T1 construct: from tissue; host or cells: frozen 10 µm sections of paraformaldehyde-fixed tissues (e.g. kidney) from C57BL/6J mice (Jackson Laboratory)
T1 sequence (O89023 195-562): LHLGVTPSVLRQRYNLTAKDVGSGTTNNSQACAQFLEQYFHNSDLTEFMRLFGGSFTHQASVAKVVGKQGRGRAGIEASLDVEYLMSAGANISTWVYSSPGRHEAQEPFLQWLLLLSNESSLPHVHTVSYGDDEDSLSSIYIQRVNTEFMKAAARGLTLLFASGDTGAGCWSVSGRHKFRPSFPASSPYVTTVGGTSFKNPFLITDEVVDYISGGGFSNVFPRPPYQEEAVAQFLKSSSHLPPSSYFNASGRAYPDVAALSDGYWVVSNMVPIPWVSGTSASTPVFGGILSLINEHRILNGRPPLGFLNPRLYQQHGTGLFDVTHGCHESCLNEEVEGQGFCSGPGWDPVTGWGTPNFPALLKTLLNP
Kind of experiment: TPP-1 histochemical staining of frozen sections of murine tissues. It counts as biochemical. The note with it: for Effectiveness of p-NBA and p-AA versus benzaldehyde with regard to precipitate density and color: aldehyde comparison; for Hydrolysis by endogenous TPP-1 in murine tissues / Specificity of TPP-1 detection / background activity: frozen sections of murine tissues. The procedure: C57BL/6J mice (6 to 8 weeks old) were purchased from the Jackson Laboratory (Bar Harbor, Me.). The mice were sacrificed with an overdose of anesthetic and then transcardially perfused with 0.9% (w/v) saline solution, followed by 2% paraformaldehyde in 0.2 M phosphate buffer. The tissues were removed and post-fixed for 2 hours. After fixation, the tissues were cryoprotected by immersion in 25% sucrose and frozen in OCT compound (Sakura Finetek U.S.A., Inc, Torrance, Calif.). Sections (10 μm) were cut with a cryostat and mounted onto gelatin-coated slides.
Sections were embedded in 0.5% celloidin, followed by incubation in substrate solutions. The sections were incubated in substrate solutions containing 1 mM of the compound, 1 mg/mL of benzaldehyde (BA) or p-anisaldehyde (p-AA) or p-nitrobenzaldehyde (p-NBA) in 0.1 M acetate buffer (pH 4.5) at 37° C. for 4 hours. Slides were rinsed and cover-slipped before viewing on a Leica DM RBE microscope equipped with a Spot-RT Digital Camera and associated software. For all experiments, tissue staining was repeated on a minimum of 5 sections/animal per compound. A minimum of three individual animals was tested to confirm consistency of the results.
Five different compounds, compounds 10, 16, 20, 27, and 31, were tested histochemically on frozen sections of murine tissues. The substrates were systematically compared for sensitivity to TPP-1 activity using conditions to control the rate of crystalline formation and diffusion of product.

For the compound `C[C@H](NC(=O)[C@@H]1CCCN1C(=O)CN)C(=O)n1nc2c3c(c(Cl)ccc31)C(=O)c1ccccc1-2` [Compound 10, Gly-L-Pro-L-Ala-5-chloro-1-anthra[1,9-cd]pyrozol-6(2H)-one], the “Effectiveness of p-NBA and p-AA versus benzaldehyde with regard to precipitate density and color” value was “more effective than benzaldehyde itself”; the “Hydrolysis by endogenous TPP-1 in murine tissues” value (from here on “Hydrolysis”) is “readily hydrolyzed”; the “Specificity of TPP-1 detection / background activity” value is “low to no background activity”. Where the note is “Benzaldehyde”, the “Autofluorescence of the final reaction product of TPP-1 histochemical staining” value (shortened to “Autofluorescence”) was “Autofluorescent” and the “Color of the final reaction product of TPP-1 histochemical staining” value (from here on “Color … of TPP-1 histochemical staining”) is on record as “Yellow-green”. Besides, for the setting “p-Anisaldehyde”, the “Autofluorescence” value is “Autofluorescent” and the “Color … of TPP-1 histochemical staining” value is reported as “Yellow-green”. Also, for the setting “p-Nitrobenzaldehyde”, the “Autofluorescence” value is “Autofluorescent” and the “Color … of TPP-1 histochemical staining” value is “Yellow-green”.
In the case of `C[C@H](NC(=O)[C@@H]1CCCN1C(=O)CN)C(=O)NNc1cccc2c1C(=O)c1ccccc1C2=O` [Compound 16, Gly-L-Pro-L-Ala-1-anthraquinonylhydrazide], the “Hydrolysis” value was “no evidence of hydrolysis”.
As to `NCC(=O)N1CCC[C@H]1C(=O)N[C@@H](CO)C(=O)NNc1cccc2c1C(=O)c1ccccc1C2=O` [Compound 20, Gly-L-Pro-L-Ser-1-anthraquinonylhydrazide], the “Effectiveness of p-NBA and p-AA versus benzaldehyde with regard to precipitate density and color” value is recorded as “more effective than benzaldehyde itself”; the “Hydrolysis” value is “readily hydrolyzed”; the “Specificity of TPP-1 detection / background activity” value was “low to no background activity”. Besides, the “Color … of TPP-1 histochemical staining” value (Benzaldehyde) is listed as “Brown”. For the same compound, under “combination with p-AA, purple precipitates in areas of high endogenous enzyme activity (e.g., kidney)”, the “Sensitivity for detecting TPP-1 activity” value is reported as “most sensitive”. In addition, under “p-Anisaldehyde”, the “Color … of TPP-1 histochemical staining” value is recorded as “Dark Purple”. Besides, the “Color … of TPP-1 histochemical staining” value (p-Nitrobenzaldehyde) is “Brown”. Further, where the note is “particularly when combined with p-anisaldehyde”, the “Effectiveness as histochemical reagent for detecting TPP-1” value was “most effective histochemical reagent”.
With `C[C@H](N)C(=O)N[C@@H](C)C(=O)N[C@@H](Cc1ccccc1)C(=O)NNc1cccc2c1C(=O)c1ccccc1C2=O` [Compound 27, L-Ala-L-Ala-L-Phe-1-anthraquinonylhydrazide], the “Effectiveness of p-NBA and p-AA versus benzaldehyde with regard to precipitate density and color” value is reported as “more effective than benzaldehyde itself”; the “Hydrolysis” value is reported as “readily hydrolyzed”; the “Specificity of TPP-1 detection / background activity” value is reported as “low to no background activity”. Also, under “Benzaldehyde”, the “Color … of TPP-1 histochemical staining” value is “Yellow-green”. Besides, where the note is “p-Anisaldehyde”, the “Color … of TPP-1 histochemical staining” value is reported as “Yellow-green”. For the same compound, for the setting “p-Nitrobenzaldehyde”, the “Color … of TPP-1 histochemical staining” value is given as “Yellow-green”.
As to `C[C@H](N)C(=O)N[C@@H](C)C(=O)N[C@H](Cc1ccccc1)C(=O)NNc1cccc2c1C(=O)c1ccccc1C2=O` [Compound 31, L-Ala-L-Ala-D-Phe-1-anthraquinonylhydrazide], the “Hydrolysis” value is recorded as “no evidence of hydrolysis”.
